# Assay: Pharmacokinetics and knee joint localization of 14C-Chlodronate after single intra-articular injection
# Type: in vivo, rat
# Settings: for residual concentration in femoral articular cartilage / residual concentration in femoral articular cartilage as % of the value measured at t=30 minutes: first order exponential approximation; for radioactivity in Femoral Articular Cartilage / radioactivity in Tibial Articular Cartilage: osteoarthritic rats, single i.a. 0.1 mg (2 mg/ml)
# Experimental: In this study the pharmacokinetics of ^14C-Chlodronate was evaluated, and the localization of the labeled compound in the knee joint following a single intra-articular injection of 0.1 mg of ^14C-Chlodronate, administered as aqueous solution in a concentration of 2 mg/ml, in sham and osteoarthritic rat models was verified.
# The pharmacokinetic parameters of ^14C-Chlodronate were determined by measuring the radioactivity of blood samples collected at different timepoints from the time of injection.
# The localization of the labeled compound in the knee joint was determined by leg x-rays. The fitting of radioactivity concentrations, expressed in μCi/g, was performed by using standard curves.
# [1] = about two weeks after the injection
# [2] = osteoarthritis rat model, 30 minutes from the injection
smiles,measurement,setting,value
O=P(O)(O)[14C](Cl)(Cl)P(=O)(O)O [^14C-Chlodronate],radioactivity mean value in the cartilage,168 hours (7 days) after the injection,about 25 μCi/g
same,radioactivity in cartilage as % of the value found half an hour after the injection,168 hours after the injection,more than 62%
same,residual concentration in femoral articular cartilage,about 1 month after injection,about 8.78 μCi/g
same,residual concentration in femoral articular cartilage as % of the value measured at t=30 minutes,about 1 month after injection,about 24.27%
same,residual concentration in femoral articular cartilage,[1],about 18.92 μCi/g
same,residual concentration in femoral articular cartilage as % of the value measured at t=30 minutes,[1],about 44.36%
same,concentration in both femoral and tibial cartilage relative to the value measured at t=30 minutes,"about two weeks after the injection, first order exponential approximation of Table 7 data",> 40%
same,concentration of 14C-Chlodronate in the blood,after a few hours from the injection,"very modest, practically negligible"
same,radioactivity in Femoral Articular Cartilage,t = 30 minutes,42.649 μCi/g
same,radioactivity in Tibial Articular Cartilage,t = 30 minutes,36.935 μCi/g
same,radioactivity in Femoral Articular Cartilage,t = 6 hours,36.163 μCi/g
same,radioactivity in Tibial Articular Cartilage,t = 6 hours,27.299 μCi/g
same,radioactivity in Femoral Articular Cartilage,t = 24 hours,34.712 μCi/g
same,radioactivity in Tibial Articular Cartilage,t = 24 hours,27.840 μCi/g
same,radioactivity in Femoral Articular Cartilage,t = 72 hours,25.561 μCi/g
same,radioactivity in Tibial Articular Cartilage,t = 72 hours,22.331 μCi/g
same,radioactivity in Femoral Articular Cartilage,t = 168 hours,28.020 μCi/g
same,radioactivity in Tibial Articular Cartilage,t = 168 hours,21.165 μCi/g
same,radioactivity concentration in the articular cartilage,[2],about 40 μCi/g
same,radioactivity concentration in the synovial cavity and in the femoral and tibial bone,[2],lower than 1 μCi/g

# From patent US11123354B2, “Method for the treatment of osteoarthritis” (ABIOGEN PHARMA S.P.A., priority 2016, dated 2021)
